According to patent publication US5288709A, “Erythromycin derivatives” (priority 1991, dated 1994):
Values after ≈ are worked out from the molar mass of the structure shown. Read-outs that look alike come from different tables or passages of the source.

How the values were obtained:
Test in all cases: In-vitro antimicrobial activity primary screen (agar dilution MIC)
Format in all cases: cell-based
Staphylococcus aureus 45 = conditions: BHI agar, 20-24 h, read-out: MIC
Experimental: (§1) The antimicrobial spectra of several of the compounds of the present invention were tested as described below.
(§2) Twelve petri dishes containing successive aqueous dilutions of the test compounds, mixed with 10 mL of sterilized Brain Heart Infusion (BHI) agar (Difco 0418-01-5), were prepared. Each plate was inoculated with 1:100 (or 1:10 for slow growing strains (primarily Micrococcus and Streptococcus) dilutions of up to 32 different microorganisms, using a Steers replicator block. The inoculated plates were incubated at 35 37° C. for 20-24 hours. In addition, a control plate, using BHI agar containing no test compound, was prepared and incubated at the beginning and the end of each test.
(§3) An additional plate containing a compound having known susceptibility patterns for the organisms being tested and belonging to the same antibiotic class as the test compounds was also prepared and incubated as a further control, as well as to provide test-to test comparability.
(§4) After incubation, each plate was read. The MIC (minimum inhibitory concentration) is defined as the lowest concentration of test compound yielding no growth, a slight haze, or sparsely isolated colonies on the inoculum spot as compared to the growth control containing no test compound.

Escherichia coli SS = conditions: BHI agar, 20-24 h, read-out: MIC
Experimental: as §1, §2, §3, §4

[1] = system: Staphylococcus epidermidis 3519; conditions: Staphylococcus epidermidis, 3519, 24 h, BHI agar, 20-24 h
Experimental: as §1, §2, §3, §4

[2] = system: Pseudomonas aeruginosa K799/WT
Experimental: as §1, §2, §3, §4

[3] = system: Klebsiella pneumoniae ATCC 8045
Experimental: as §1, §2, §3, §4

[4] = system: Streptococcus pyrogenes EES61; conditions: BHI agar, 20-24 h, read-out: MIC
Experimental: as §1, §2, §3, §4

[5] = system: Pseudomonas aeruginosa A5007
Experimental: as §1, §2, §3, §4

[6] = system: Enterobacter aerogenes ATCC 13048; conditions: Klebsiella aerogenes
Experimental: as §1, §2, §3, §4

[7] = system: Streptococcus pyrogenes 2548 INDUC; conditions: BHI agar, 20-24 h
Experimental: as §1, §2, §3, §4

[8] = system: Streptococcus agalactiae CMX 508; conditions: Streptococcus agalactiae, CMX508, 24 h, BHI agar, 20-24 h
Experimental: as §1, §2, §3, §4

[9] = system: Providencia stuartii CMX 640
Experimental: as §1, §2, §3, §4

Pseudomonas cepacia 2961 = conditions: BHI agar, 20-24 h
Experimental: as §1, §2, §3, §4

[10] = system: Streptococcus bovis A5169; conditions: Streptococcus equinus, A5169, 24 h, BHI agar, 20-24 h
Experimental: as §1, §2, §3, §4

[11] = system: Staphylococcus aureus 45 RAR2; conditions: Staphylococcus aureus, 45RAR2, 24 h, BHI agar, 20-24 h
Experimental: as §1, §2, §3, §4

Escherichia coli DC-2 = system: Escherichia coli DC-2
Experimental: as §1, §2, §3, §4

[12] = system: Enterococcus faecium ATCC 8043; conditions: Enterococcus faecium, ATCC8043, 24 h
Experimental: as §1, §2, §3, §4

Escherichia coli H560 = system: Escherichia coli H560
Experimental: as §1, §2, §3, §4

Acinetobacter SP CMX 669 = system: Acinetobacter SP CMX 669
Experimental: as §1, §2, §3, §4

[13] = system: Micrococcus luteus ATCC 9341; conditions: ATCC9341, BHI agar, 20-24 h, read-out: MIC
Experimental: as §1, §2, §3, §4

[14] = system: Pseudomonas aeruginosa K799/61; conditions: Pseudomonas aeruginosa K799/61, BHI agar, 20-24 h
Experimental: as §1, §2, §3, §4

[15] = system: Micrococcus luteus ATCC 4698; conditions: Micrococcus luteus, ATCC4698, 24 h, BHI agar, 20-24 h
Experimental: as §1, §2, §3, §4

[16] = system: Pseudomonas aeruginosa BMH10; conditions: BHI agar, 20-24 h
Experimental: as §1, §2, §3, §4

[17] = system: Staphylococcus aureus ATCC 6538P; conditions: Staphylococcus aureus, ATCC6538P, 24 h, BHI agar, 20-24 h
Experimental: as §1, §2, §3, §4

Escherichia coli JUHL = system: Escherichia coli JUHL
Experimental: as §1, §2, §3, §4

[18] = system: Staphylococcus aureus A5177; conditions: Staphylococcus aureus A5177; BHI agar, 20-24 h; read-out: MIC
Experimental: as §1, §2, §3, §4

[19] = system: Staphylococcus aureus CMX 503A; conditions: Staphylococcus aureus, CMX503A, 24 h, BHI agar, 20-24 h, read-out: MIC
Experimental: as §1, §2
as §3, with “comparability. Erythromycin A was used for this purpose.” for “comparability.”
as §4

[20] = system: Staphylococcus aureus CMX 686B; conditions: CMX686B, BHI agar, 20-24 h, read-out: MIC
Experimental: as §1, §2
as §3, with “comparability. Erythromycin A was used for this purpose.” for “comparability.”
as §4

[21] = system: Staphylococcus aureus CMX 553; conditions: Staphylococcus aureus, CMX553, 24 h, BHI agar, 20-24 h, read-out: MIC
Experimental: as §1, §2
as §3, with “comparability. Erythromycin A was used for this purpose.” for “comparability.”
as §4

| SMILES | MIC (Staphylococcus aureus 45) [µg/mL] | MIC (Escherichia coli SS) [µg/mL] | MIC [1] [µg/mL] | MIC [4] [µg/mL] | MIC [8] [µg/mL] | MIC [10] [µg/mL] | MIC [11] [µg/mL] | MIC [12] [µg/mL] | MIC [13] [µg/mL] | MIC [15] [µg/mL] | MIC [17] [µg/mL] | MIC [18] [µg/mL] | MIC [19] [µg/mL] | MIC [20] [µg/mL] | MIC [21] [µg/mL] | also measured |
| --- | --- | --- | --- | --- | --- | --- | --- | --- | --- | --- | --- | --- | --- | --- | --- | --- |
| CC[C@H]1OC(=O)[C@H](C)[C@@H](O[C@H]2C[C@@](C)(OC)[C@H](NC(C)=O)[C@H](C)O2)[C@H](C)[C@@H](O[C@@H]2O[C@H](C)C[C@H](N(C)C)[C@H]2O)[C@](C)(O)C[C@@H](C)[C@@H]2O[C@@]1(C)C(=O)[C@H]2C [Example 10, (4"R,9S) 4"-Acetylamino-9-deoxo-4",11,12-trideoxy-9,12-epoxy-11-oxoerythromycin A] | 0.39 (≈ 0.515 µM) | 0.39 (≈ 0.515 µM) | 0.39 (≈ 0.515 µM) | 0.02 (≈ 0.0264 µM) | 0.1 (≈ 0.132 µM) | 0.2 (≈ 0.264 µM) | 0.39 (≈ 0.515 µM) | 0.2 (≈ 0.264 µM) | 0.05 (≈ 0.0661 µM) | 0.2 (≈ 0.264 µM) | 0.39 (≈ 0.515 µM) | 0.39 (≈ 0.515 µM) | 0.39 (≈ 0.515 µM) | 0.39 (≈ 0.515 µM) | 0.39 (≈ 0.515 µM) | MIC ([2]; Pseudomonas aeruginosa K799/WT, BHI agar, 20-24 h, read-out: MIC): > 100 µg/mL; MIC ([3]; ATCC8045, Klebsiella pneumoniae ATCC 8045, BHI agar, 20-24 h, read-out: MIC): > 100 µg/mL; MIC ([5]; Pseudomonas aeruginosa A5007, BHI agar, 20-24 h, read-out: MIC): > 100 µg/mL; MIC ([6]; ATCC13048, Enterobacter aerogenes ATCC 13048, BHI agar, 20-24 h, read-out: MIC): > 100 µg/mL; MIC ([7]; read-out: MIC): 0.78 µg/mL (≈ 1.03 µM); MIC ([9]; CMX640, Providencia stuartii CMX 640, BHI agar, 20-24 h, read-out: MIC): > 100 µg/mL; MIC (Pseudomonas cepacia 2961; Burkholderia cepacia, read-out: MIC): > 100 µg/mL; MIC (Escherichia coli DC-2; DC2, Escherichia coli DC-2, BHI agar, 20-24 h, read-out: MIC): > 100 µg/mL; MIC (Escherichia coli H560; Escherichia coli H560, BHI agar, 20-24 h, read-out: MIC): 100 µg/mL (≈ 132 µM); MIC (Acinetobacter SP CMX 669; SPCMX669, Acinetobacter SP CMX 669, BHI agar, 20-24 h, read-out: MIC): 50 µg/mL (≈ 66.1 µM); MIC ([14]; read-out: MIC): 1.56 µg/mL (≈ 2.06 µM); MIC ([16]; read-out: MIC): > 100 µg/mL; MIC (Escherichia coli JUHL; Escherichia coli JUHL, BHI agar, 20-24 h, read-out: MIC): > 100 µg/mL |
| CC[C@H]1OC(=O)[C@H](C)[C@@H](O[C@H]2C[C@@](C)(OC)[C@H](NCc3ccccc3)[C@H](C)O2)[C@H](C)[C@@H](O[C@@H]2O[C@H](C)C[C@H](N(C)C)[C@H]2O)[C@](C)(O)C[C@@H](C)[C@@H]2O[C@@]1(C)C(=O)[C@H]2C [Example 12, (4"R,9S)-9-Deoxo-4", 11,12-trideoxy-9,12-epoxy-11-oxo-4"-[(phenylmethyl)amino]erythromycin A] | 0.2 (≈ 0.248 µM) | 3.1 (≈ 3.85 µM) | 0.39 (≈ 0.484 µM) | 0.1 (≈ 0.124 µM) | 0.1 (≈ 0.124 µM) | 0.05 (≈ 0.0621 µM) | 0.39 (≈ 0.484 µM) | 0.2 (≈ 0.248 µM) | 0.05 (≈ 0.0621 µM) | 0.39 (≈ 0.484 µM) | 0.39 (≈ 0.484 µM) | 0.39 (≈ 0.484 µM) | 0.39 (≈ 0.484 µM) | 0.39 (≈ 0.484 µM) | 0.2 (≈ 0.248 µM) | MIC ([2]; Pseudomonas aeruginosa, K799/WT, 24 h): 100 µg/mL (≈ 124 µM); MIC ([3]; Klebsiella pneumoniae, ATCC8045, 24 h): > 100 µg/mL; MIC ([5]; Pseudomonas aeruginosa, A5007, 24 h): > 100 µg/mL; MIC ([6]; ATCC13048, 24 h): > 100 µg/mL; MIC ([7]; Streptococcus, 2548INDUC, 24 h): 3.1 µg/mL (≈ 3.85 µM); MIC ([9]; Providencia stuartii, CMX640, 24 h): > 100 µg/mL; MIC (Pseudomonas cepacia 2961; Burkholderia cepacia, 2961, 24 h): > 100 µg/mL; MIC (Escherichia coli DC-2; Escherichia coli, DC2, 24 h): > 100 µg/mL; MIC (Escherichia coli H560; Escherichia coli, H560, 24 h): > 100 µg/mL; MIC (Acinetobacter SP CMX 669; Acinetobacter, SPCMX669, 24 h): > 100 µg/mL; MIC ([14]; Pseudomonas aeruginosa, K799/61, 24 h): 3.1 µg/mL (≈ 3.85 µM); MIC ([16]; Pseudomonas aeruginosa, BMH10, 24 h): > 100 µg/mL; MIC (Escherichia coli JUHL; Escherichia coli, 24 h): > 100 µg/mL |
